Measurements published in the NIST ThermoML archive (doi:10.1016/j.jct.2011.08.016).
± gives the expanded uncertainty stated by the source.

Conditions: Liquid, Vibrating tube method

CCCCCCCCCC [decane]
mass density [kg/m3]
Conditions | 313.07 K | 323 K | 332.87 K | 342.78 K | 352.8 K | 362.73 K
1000 kPa | 715.64 ± 0.41 | 707.96 ± 0.41 | 700.33 ± 0.41 | 692.65 ± 0.41 | – | –
2000 kPa | 716.68 ± 0.41 | 708.93 ± 0.42 | 701.26 ± 0.42 | 693.68 ± 0.42 | 686.08 ± 0.42 | 678.44 ± 0.42
3000 kPa | 717.38 ± 0.42 | 709.81 ± 0.42 | 702.21 ± 0.42 | 694.72 ± 0.42 | 687.17 ± 0.42 | 679.58 ± 0.43
4000 kPa | 718.16 ± 0.42 | 710.88 ± 0.42 | 703.17 ± 0.42 | 695.7 ± 0.43 | 688.23 ± 0.43 | 680.71 ± 0.43
5000 kPa | 719.02 ± 0.43 | 711.52 ± 0.43 | 704.12 ± 0.43 | 696.68 ± 0.43 | 689.3 ± 0.43 | 681.85 ± 0.43
6000 kPa | 719.65 ± 0.43 | 712.48 ± 0.43 | 705.07 ± 0.43 | 697.68 ± 0.44 | 690.33 ± 0.44 | 682.98 ± 0.44
7000 kPa | 720.52 ± 0.43 | 713.3 ± 0.44 | 705.98 ± 0.44 | 698.61 ± 0.44 | 691.38 ± 0.44 | 684.09 ± 0.44
8000 kPa | 721.28 ± 0.44 | 714.23 ± 0.44 | 706.88 ± 0.44 | 699.57 ± 0.45 | 692.38 ± 0.45 | 685.16 ± 0.45
9000 kPa | 722.11 ± 0.44 | 715.05 ± 0.45 | 707.79 ± 0.45 | 700.54 ± 0.45 | 693.41 ± 0.45 | 686.25 ± 0.46
10000 kPa | 723.13 ± 0.45 | 715.91 ± 0.45 | 708.65 ± 0.45 | 701.49 ± 0.46 | 694.37 ± 0.46 | 687.29 ± 0.46
11000 kPa | 723.65 ± 0.45 | 716.74 ± 0.46 | 709.52 ± 0.46 | 702.4 ± 0.46 | 695.36 ± 0.46 | 688.32 ± 0.47
12000 kPa | 724.48 ± 0.46 | 717.54 ± 0.46 | 710.39 ± 0.46 | 703.29 ± 0.47 | 696.32 ± 0.47 | 689.33 ± 0.47
13000 kPa | 725.48 ± 0.46 | 718.35 ± 0.47 | 711.26 ± 0.47 | 704.14 ± 0.47 | 697.29 ± 0.48 | 690.34 ± 0.48
14000 kPa | 726.15 ± 0.47 | 719.15 ± 0.47 | 712.07 ± 0.47 | 705.05 ± 0.48 | 698.22 ± 0.48 | 691.28 ± 0.49
15000 kPa | 726.86 ± 0.47 | 719.92 ± 0.48 | 712.9 ± 0.48 | 705.93 ± 0.48 | 699.15 ± 0.49 | 692.36 ± 0.49
16000 kPa | 727.49 ± 0.48 | 720.7 ± 0.48 | 713.71 ± 0.49 | 706.79 ± 0.49 | 700.03 ± 0.49 | –
17000 kPa | 728.18 ± 0.48 | 721.46 ± 0.49 | 714.52 ± 0.49 | 707.6 ± 0.5 | 700.94 ± 0.5 | –
18000 kPa | 729.07 ± 0.49 | 722.22 ± 0.49 | 715.32 ± 0.5 | – | 701.82 ± 0.51 | –
18010 kPa | – | – | – | 708.57 ± 0.5 | – | –
19000 kPa | 729.72 ± 0.49 | 722.97 ± 0.5 | 716.1 ± 0.5 | 709.45 ± 0.51 | 702.71 ± 0.51 | –
20000 kPa | 730.26 ± 0.5 | 723.71 ± 0.5 | 716.88 ± 0.51 | 710.3 ± 0.51 | 703.59 ± 0.52 | –
21000 kPa | 731.22 ± 0.51 | 724.45 ± 0.51 | 717.65 ± 0.52 | 710.91 ± 0.52 | 704.44 ± 0.53 | –
22000 kPa | 731.8 ± 0.51 | 725.18 ± 0.52 | 718.43 ± 0.52 | 711.92 ± 0.53 | 705.25 ± 0.53 | –
23000 kPa | 732.7 ± 0.52 | 725.92 ± 0.52 | 719.19 ± 0.53 | 712.48 ± 0.53 | 706.14 ± 0.54 | –
24000 kPa | 733.26 ± 0.52 | 726.62 ± 0.53 | 719.99 ± 0.53 | 713.42 ± 0.54 | 706.95 ± 0.55 | –
25000 kPa | 733.93 ± 0.53 | 727.42 ± 0.53 | 720.76 ± 0.54 | 714.1 ± 0.55 | 707.83 ± 0.55 | –
